According to patent US20170029436A1, “NEOSORAPHENS” (Helmoltz-Zentrum für Infektionsforschung GmbH, priority 2014, published 2017):
pEC50: −log10 of the molar value.

What was measured:
[1] = tested on: Naive mouse CD4+ T cells under Th17 conditions; experiment: In vitro Th17 differentiation of naive CD4+ T cells (IL-17A+ cells by flow cytometry); assay type: cell-based; details: 4 days under Th17 conditions, FIG. 1A; for percentage of IL-17A producing T-cells (inhibition of Th17 differentiation): varying concentrations
Description: (§1) Single cell suspensions were prepared and pooled from the spleen, mesenteric and peripheral lymph nodes of adult C57BL/6 mice by filtering the crushed organs through a 70 μm cell-strainer. Naïve CD4+CD25^−CD62L+ T cells were subsequently isolated from these suspensions using the CD4+CD25^−CD62L+ T cell isolation Kit II and AutoMACS according to the manufacturer's protocol (Miltenyi Biotec) or by FACS sorting. Purified T cells were cultured under classic Th17 inducing conditions (Bettelli et al., Nature 441(7090): 235-8 (2006)). In detail, the cells were cultured in 96 well flat bottom plates (3×10^5 cells per well), that were precoated with 10 μg/ml anti-CD3 Antibody (clone 145-2C11, BioXcell) in the presence of antibodies against CD28 (1 μg/ml, clone 37.51, BioXcell), IFN-γ (5 μg/ml, clone XMG1.2, BioXcell) and IL-4 (5 μg/ml, clone 11B11, BioXcell) as well as in the presence of TGFβ1 (2 ng/ml, R&D), IL-6 (5 ng/ml, R&D) and IL-1β (50 ng/ml, R&D) in IMDM Medium (supplemented with 10% FCS+500 U PenStrep+50 μM β-Mercaptoethanol). To these cultures, increasing concentrations of ACC Inhibitors Soraphen A or 5-(Tetradecyloxy)-2-furoic acid (TOFA) (both dissolved in DMSO) were added on day 0 and cultured for up to 4 days in an cell culture incubator (37° C. and 5% CO2). As control, cells were cultured in the presence of DMSO only.
(§2) Were indicated, cells from Th17 cultures were restimulated with 100 ng/ml phorbol 12-myristate 13-acetate (Sigma) and 1 μg/ml Inonomycin (Sigma) for 4 h and Brefeldin A (1:1000, Sigma) was added for the last 2 h of restimulation. After restimulation, cells were harvested for flow cytometry. For surface staining: fluorophore-labelled mAbs aginst CD3ε and CD4 were obtained from eBiosciences. For intracellular staining, cells were fixed with Fix/Perm (eBioscience) according to the manufacturer's protocol, and stained intracellular with fluorophore-labelled mAbs directed against IL-17A and Foxp3 (eBiosciences). Cells were run on a flow cytometer (CyAn, Beckman Coulter) and data was analysed on FlowJo (TreeStar) software.
(§3) To isolate naive CD4+CD25^−CD62L+ T cells by FACS-sorting, lymphocyte suspensions were surface-stained with fluorophore-labelled mAbs aginst CD4, CD25 and CD62L (all from ebioscience) and live CD4+CD25^−CD62L+ T cells were sorted to >98% purity using a Moflo (Beckman Coulter) or FACS ARIAII (BD Biosciences) cell sorter.
(§4) Naive mouse CD4^+ T cells were cultured for 4 days under Th17 conditions in the presence of varying concentrations of the compounds of the invention. As control, cells were cultured in the presence of DMSO only (negative control) or ACC inhibitor Soraphen A (positive control). After 4 days, cells were restimulated with PMA/Ionomycin for 4 h and Brefeldin A for 2 h and further analysed by flow cytometry.

[2] = CytoTox-Glo cytotoxicity (viability) assay; assay type: cell-based; details: human, Huh7/Scr cells, read-out: CC50 (half maximal cytotoxic concentration)
Description: (§5) To assess the inhibitory effects of Neosoraphens on HCV infection, a HCV cell-culture (HCVcc) system^[1-3] was used. Unless otherwise stated, Huh7/Scr cells (provided by F. Chisari, The Scripps Research Institute, La Jolla, Calif.) which are highly permissive for HCV propagation in vitro were employed. The experiments were performed in the context of genotype 2a (Jc1 chimera^[4]) HCVcc virus. To facilitate the quantification of infection, the bicistronic Jc1 luciferase reporter construct, designated Luc-Jc1^[5], was used. The commercial ACC inhibitor 5-(Tetradecyloxy)-2-furoic acid (TOFA), which has been previously described to inhibit HCV replication^[6], was chosen for comparison of the antiviral activities of the Neosoraphens. The NS3-4A serine protease inhibitor VX-950^[7], a known HCV replication inhibitor, was used as positive control. Briefly, Huh7/Scr cells were seeded at a density of 1.2×10^4 cells/well in 96-well plates. One day later cells were pre-incubated for 1 h at 37° C. with the compounds and then inoculated with the virus and the compounds for 4 h at 37° C. Finally, virus-containing media was replaced by a fresh media-compounds mix. Firefly luciferase activities were assayed 72 h post infection with the Dual-Glo® Luciferase Assay System while cytotoxicity (viability) assays were carried out with the CytoTox-Glo™ Cytotoxicity Assay (both purchased from Promega Corporation, Madison, Wis.), according to manufacturer's instructions, using a plate luminometer FLUOstar OPTIMA (BMG LABTECH, Ortenberg, Germany). Mean relative light units (RLU) were plotted as percentage relative to control infections (solvent without compounds) for both infectivity and cell viability. Infections were carried out in triplicates and measured in duplicates (mean±SEM; n=6). Half maximal effective concentration (EC50) and half maximal cytotoxic concentration 50 (CC50) were estimated by non-linear regression of log inhibitor vs. normalized response and used to calculate the Selectivity Index (SI) value.

[3] = tested on: genotype 2a (Jc1 chimera) HCVcc virus; experiment: HCV cell-culture (HCVcc) infection assay, Luc-Jc1 luciferase reporter in Huh7/Scr cells; assay type: cell-based; details: for pEC50: Hepatitis C virus, Huh-7, 72 h, read-out: EC50 (antiviral activity, HCV infection); for SI (Selectivity Index): calculated from EC50 and CC50
Description: as §5

[4] = tested on: Naive mouse CD4+ T cells under Th17 conditions; experiment: Induction of Foxp3+ Treg differentiation in Th17 cultures (flow cytometry); assay type: cell-based; details: 4 days under Th17 conditions, varying concentrations, FIG. 1B
Description: as §1, §2, §3, §4

rotavirus (RV) = details: Gaunt et al., J Gen Virol 2013; cited from earlier work

Row | SMILES | percentage of IL-17A producing T-cells (inhibition of Th17 differentiation) [1] | CC50 at 72 h [2] [nM] | pEC50 [3] | SI (Selectivity Index) [3] | differentiation of Foxp3+ Treg cells [4] | pEC50 ([1]; read-out: EC50 for decrease of IL-17A producing T-cells) | reduction of infectivity of progeny rotavirus (rotavirus (RV)) [fold] | reduction of viral RNA production (rotavirus (RV)) [fold]
1 | COC1CCCCC(c2ccccc2)OC(=O)CC2(O)CC(O)C(C)C(O2)C(C)/C=C/C1O (stereo not shown) [Neosoraphen M462] | Inhibition of Th17 | 13600 | 8.11 | 1752 | induction of Treg differentiation | – | – | –
2 | COC1CCCCC(c2ccccc2)OC(=O)CC2(O)CC(O)C(C)C(O2)C(C)CCC1O (stereo not shown) [Neosoraphen M464] | Inhibition of Th17 | 52200 | 7.34 | 1136 | induction of Treg differentiation | – | – | –
3 | COC1/C=C/C(C)C2OC(O)(CC(=O)OC(c3ccccc3)CCCCC1OC)CC(O)C2C (stereo not shown) [Neosoraphen M476] | Inhibition of Th17 | 199000 | 8.68 | 95072 | induction of Treg differentiation | – | – | –
4 | COC1CCCCC(c2ccccc2)OC(=O)CC2(O)CC(O)C(C)C(O2)C(C)CCC1OC (stereo not shown) [Neosoraphen M478] | Inhibition of Th17 | 98700 | 8.82 | 64961 | induction of Treg differentiation | – | – | –
5 | COC1CCCCC(c2ccccc2)OC(=O)CC2(O)CC(O)C(C)C(O2)C(C)C(O)CC1O (stereo not shown) [Neosoraphen M480] | – | 45500 | 7.18 | 693 | – | – | – | –
6 | CO[C@H]1CCCC[C@@H](c2ccccc2)OC(=O)[C@@H](C)[C@@]2(O)O[C@H]([C@@H](C)[C@H](O)[C@H]2OC)[C@@H](C)/C=C/[C@H]1OC [Soraphen A, reference compound] | decreases the percentage of IL-17A producing T-cells in a dose dependent manner | – | – | – | induces the reciprocal differentiation of Foxp3+ Treg cells | 7.40 | – | –
7 | CCCCCCCCCCCCCCOc1ccc(C(=O)O)o1 [TOFA, 5-(Tetradecyloxy)-2-furoic acid, reference compound] | – | 33900 | 6.00 | 34 | – | – | 31 | 6
8 | CCC[C@H](NC(=O)[C@@H]1[C@H]2CCC[C@H]2CN1C(=O)[C@@H](NC(=O)[C@@H](NC(=O)c1cnccn1)C1CCCCC1)C(C)(C)C)C(=O)C(=O)NC1CC1 [VX-950, reference compound] | – | 94500 | 7.72 | 4995 | – | – | – | –
